In the supplement of paper PMC10307832:

Columns and labels:
Test in all cases: relative viability (nuclei count vs DMSO), 5 days (fraction); higher = more cells survive
[1] = compound: CN(c1ncccc1CNc1nc(Nc2ccc3c(c2)CC(=O)N3)ncc1C(F)(F)F)S(C)(=O)=O + CC(C)C[C@H](NC(=O)[C@H](Cc1ccccc1)NC(=O)c1cnccn1)B(O)O [Bortezomib] (partner 0.002 µM)
How it was run: (§1)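 Values are medians from duplicate plates. Each reflects relative viability, defined as the nuclei count of treated wells over that of vehicle wells. Lung cancer cell lines in 1536-well plates were pin-tool dosed one day after seeding with one drug alone or with a fixed anchor-drug dose plus five library-drug doses (not always all listed) in √10 steps, then fixed, stained and imaged at 4× after 5 days.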

[2] = compound: CN(c1ncccc1CNc1nc(Nc2ccc3c(c2)CC(=O)N3)ncc1C(F)(F)F)S(C)(=O)=O + NC(=O)Nc1cc(-c2cccc(F)c2)sc1C(=O)N[C@H]1CCCNC1 [AZD7762] (partner 0.2 µM)
How it was run: as §1

[3] = compound: CN(c1ncccc1CNc1nc(Nc2ccc3c(c2)CC(=O)N3)ncc1C(F)(F)F)S(C)(=O)=O + Cc1cc(Nc2cc(N3CCN(C)CC3)nc(Sc3ccc(NC(=O)C4CC4)cc3)n2)n[nH]1 [Tozasertib] (partner 0.1 µM)
How it was run: as §1

[4] = compound: CN(c1ncccc1CNc1nc(Nc2ccc3c(c2)CC(=O)N3)ncc1C(F)(F)F)S(C)(=O)=O + Nc1ncn([C@H]2C[C@H](O)[C@@H](CO)O2)c(=O)n1 [Decitabine] (partner 2 µM)
How it was run: as §1

| Cell Line | relative viability ([1]; first compound 0.01 µM) | relative viability ([1]; first compound 0.03162 µM) | relative viability ([1]; first compound 0.1 µM) | relative viability ([1]; first compound 0.3162 µM) | relative viability ([1]; first compound 1 µM) | relative viability ([2]; first compound 0.01 µM) | relative viability ([2]; first compound 0.03162 µM) | relative viability ([2]; first compound 0.1 µM) | relative viability ([2]; first compound 0.3162 µM) | relative viability ([2]; first compound 1 µM) | relative viability ([3]; first compound 0.01 µM) | relative viability ([3]; first compound 0.03162 µM) | relative viability ([3]; first compound 0.1 µM) | relative viability ([3]; first compound 0.3162 µM) | relative viability ([3]; first compound 1 µM) | relative viability ([4]; first compound 0.01 µM) | relative viability ([4]; first compound 0.03162 µM) | relative viability ([4]; first compound 0.1 µM) | relative viability ([4]; first compound 0.3162 µM) | relative viability ([4]; first compound 1 µM) |
| --- | --- | --- | --- | --- | --- | --- | --- | --- | --- | --- | --- | --- | --- | --- | --- | --- | --- | --- | --- | --- |
| HCC-827 | 1.1 | 1.06 | 1.09 | 1.02 | 1.05 | 0.202 | 0.227 | 0.25 | 0.284 | 0.331 | 0.372 | 0.455 | 0.401 | 0.436 | 0.43 | 0.284 | 0.309 | 0.348 | 0.413 | 0.391 |
| ChaGo-K-1 | 1.01 | 0.803 | 1.11 |  | 1.09 | 0.932 | 0.856 | 0.873 | 0.917 | 0.853 | 0.233 | 0.231 | 0.223 | 0.236 | 0.205 | 0.565 | 0.549 | 0.438 | 0.527 | 0.492 |
| EMC-BAC-2 | 1.08 | 1.1 | 1 | 1.06 | 1.08 | 1.17 | 1.08 | 1.1 | 1.11 | 1.14 | 0.302 | 0.283 | 0.287 | 0.255 | 0.246 | 0.994 | 1.02 | 0.915 | 0.963 | 0.982 |
| NCI-H23 | 1.22 | 1.38 | 1.09 | 1.08 | 1.03 | 0.245 | 0.276 | 0.243 | 0.289 | 0.382 | 0.494 | 0.356 | 0.407 | 0.295 | 0.351 | 0.308 | 0.345 | 0.319 | 0.332 | 0.292 |
| RERF-LC-KJ | 1.08 | 1.23 | 1.11 | 1.13 | 0.999 | 0.89 | 1.08 | 1.03 | 1.04 | 1.07 | 0.468 | 0.466 | 0.467 | 0.514 | 0.348 | 0.651 | 0.71 | 0.645 | 0.793 | 0.764 |
| LC-2-ad | 1.04 | 1 | 1.06 | 0.961 | 0.799 | 0.864 | 0.808 | 0.892 | 0.768 | 0.811 | 0.417 | 0.433 | 0.546 | 0.426 | 0.442 | 0.789 | 0.833 | 0.828 | 0.852 | 0.863 |
| HCC-15 | 1.04 | 1 | 0.898 | 0.88 | 0.829 | 1.31 | 1.39 | 1.04 | 1.23 | 1.21 | 0.418 | 0.555 | 0.44 | 0.32 | 0.254 | 0.639 | 0.629 | 0.548 | 0.496 | 0.523 |
| NCI-H2405 | 1.05 | 0.972 | 1.03 | 0.865 | 0.813 | 0.702 | 0.69 | 0.749 | 0.573 | 0.626 | 0.696 | 0.719 | 0.715 | 0.534 | 0.499 | 0.766 | 0.735 | 0.67 | 0.681 | 0.648 |
| LXF-289 | 1.05 | 1.01 | 0.991 | 0.989 | 0.978 | 1.16 | 1.17 | 1.1 | 1.13 | 1.2 | 0.176 | 0.178 | 0.242 | 0.18 | 0.17 | 0.374 | 0.427 | 0.419 | 0.412 | 0.447 |
| NCI-H1755 | 0.985 | 0.967 | 0.983 | 0.849 | 0.826 | 0.585 | 0.398 | 0.488 | 0.502 | 0.437 | 0.519 | 0.533 | 0.593 | 0.472 | 0.61 | 0.682 | 0.728 | 0.721 | 0.646 | 0.707 |
| NCI-H1437 | 0.612 | 0.462 | 0.527 | 0.514 | 0.405 | 1.12 | 1.17 | 1.15 | 1.08 | 1.07 | 0.424 | 0.483 | 0.397 | 0.411 | 0.355 | 0.535 | 0.661 | 0.502 | 0.498 | 0.422 |
| NCI-H2085 | 1.06 | 1.11 | 1.04 | 1 | 0.949 | 1 | 1.02 | 1.02 | 1.07 | 1.03 | 0.797 | 0.721 | 0.772 | 0.697 | 0.584 | 0.545 | 0.577 | 0.547 | 0.548 | 0.522 |
| H3255 | 0.758 | 0.783 | 0.819 | 0.505 | 0.784 | 0.938 | 0.871 | 0.935 | 0.934 | 0.81 | 0.808 | 0.599 | 0.775 | 0.571 | 0.51 | 0.633 | 0.587 | 0.572 | 0.552 | 0.615 |
| NCI-H650 | 0.69 | 0.846 | 0.843 | 0.692 | 0.649 | 0.909 | 1.08 | 0.822 | 0.948 | 0.995 | 0.713 | 0.712 | 0.637 | 0.622 | 0.608 | 0.316 | 0.351 | 0.342 | 0.285 | 0.307 |
| LCLC-103H | 1.13 | 1.05 | 1.18 | 0.937 | 1.02 | 0.72 | 0.711 | 0.734 | 0.745 | 0.815 | 0.469 | 0.457 | 0.414 | 0.415 | 0.466 | 0.68 | 0.673 | 0.697 | 0.672 | 0.684 |
| LOU-NH91 | 0.497 | 0.47 | 0.482 | 0.482 | 0.459 | 0.793 | 0.754 | 0.735 | 0.746 | 0.79 | 0.641 | 0.674 | 0.647 | 0.645 | 0.576 | 0.863 | 0.832 | 0.812 | 0.844 | 0.839 |
| NCI-H3122 | 1.04 | 1.03 | 1.01 | 0.968 | 0.891 | 1.04 | 1.09 | 0.981 | 0.978 | 1.03 | 0.61 | 0.383 | 0.403 | 0.402 | 0.341 | 0.445 | 0.423 | 0.395 | 0.429 | 0.403 |
| PC-3 [JPC-3] | 0.853 | 0.801 | 0.827 | 0.855 | 0.829 | 0.851 |  | 0.848 | 0.948 | 1.03 | 0.903 | 0.907 | 0.913 | 0.847 | 0.832 | 0.826 |  | 0.821 | 0.884 | 0.834 |
| NCI-H1651 | 0.936 | 1.04 | 0.939 | 0.885 | 0.9 | 0.507 | 0.469 | 0.488 | 0.534 | 0.484 | 0.67 | 0.719 | 0.671 | 0.681 | 0.515 | 0.657 | 0.695 | 0.623 | 0.713 | 0.576 |
| NCI-H2087 | 1.13 | 0.699 | 0.882 | 0.807 | 0.768 | 1.28 | 1.3 | 1.32 | 1.35 | 1.2 | 0.224 | 0.238 | 0.236 | 0.293 | 0.207 | 0.312 | 0.255 | 0.256 | 0.36 | 0.299 |
